Measurements reported in patent publication US20260014210A1, “SYMBIOTIC BACTERIUM IN HUMANS FOR PROMOTING HAIR GROWTH AND USE THEREOF” (priority 2022, published 2026).

Key:
[1] = system: Dunkin Hartley guinea pigs; settings: 200 μL applied on D0, D7, D14, provocation D28; ShC4 2E10 CFU; scored to 72 hours after stimulation
ShC4 strain = experiment: ShC4 antibiotic sensitivity test (antibiotic sensitivity tablets); format: cell-based, Staphylococcus hominis; settings: for Mean diameter (mm) of inhibitory ring: antibiotic content per tablet, 36±1° C., 24 hours, three replicates; for sensitivity of ShC4 strain to the antibiotic (in words): summary of Table 1
[2] = standard for oxacillin and piperacillin
[3] = standard for penicillin and ampicillin
[4] = standard for tetracycline and minocycline

| Molecule | Mean diameter (mm) of inhibitory ring (ShC4 strain) [mm] | sensitivity of ShC4 strain to the antibiotic (in words) (ShC4 strain) | other results |
| --- | --- | --- | --- |
| 2,4-dinitrochlorobenzene [CDNB] |  |  | allergy rate [1]: 100% |
| Cc1onc(-c2ccccc2)c1C(=O)N[C@@H]1C(=O)N2[C@@H]1SC(C)(C)[C@@H]2C(=O)O [Oxacillin (OX), Oxacillin] | 29.4 | sensitive | Sensitivity (ShC4 strain; [2]): S (≥18) |
| CCN1CCN(C(=O)N[C@@H](C(=O)N[C@@H]2C(=O)N3[C@@H]2SC(C)(C)[C@@H]3C(=O)O)c2ccccc2)C(=O)C1=O [Piperacillin] | 18.86 | sensitive | Sensitivity (ShC4 strain; [2]): S (≥18) |
| CC1(C)S[C@@H]2[C@H](NC(=O)[C@H](N)c3ccccc3)C(=O)N2[C@H]1C(=O)O [ampicillin] | 16.69 | resistance | Sensitivity (ShC4 strain; [3]): R (≤28) |
| CC[C@H]1OC(=O)[C@H](C)[C@@H](O[C@H]2C[C@@](C)(OC)[C@@H](O)[C@H](C)O2)[C@H](C)[C@@H](O[C@@H]2O[C@H](C)C[C@H](N(C)C)[C@H]2O)[C@](C)(O)C[C@@H](C)C(=O)[C@H](C)[C@@H](O)[C@]1(C)O [erythromycin] | 23.96 | sensitive | Sensitivity (ShC4 strain; standard for erythromycin): S (≥23) |
| CN(C)c1ccc(O)c2c1C[C@H]1C[C@H]3[C@H](N(C)C)C(O)=C(C(N)=O)C(=O)[C@@]3(O)C(O)=C1C2=O [minocycline] | 29.33 |  | Sensitivity (ShC4 strain; [4]): S (≥19) |
| CN(C)[C@@H]1C(O)=C(C(N)=O)C(=O)[C@@]2(O)C(O)=C3C(=O)c4c(O)cccc4[C@@](C)(O)[C@H]3C[C@@H]12 [tetracycline] | 25.85 |  | Sensitivity (ShC4 strain; [4]): S (≥19) |
| Penicillin [Penicillin (P)] | 15.72 | resistance | Sensitivity (ShC4 strain; [3]): R (≤28) |
| cotrimoxazole | 0 | resistance |  |
